Like-named read-outs stand apart in the source and are kept apart here.
How the values were obtained:
[1] = tested on: Escherichia coli; details: EGT at 5 mM and 50 mM; cited from earlier work
[2] = HPLC area of SRH, SRH dehydrated dimer and EGT before and 4 days after concentration (Reference Example); assay type: physicochemical; details: sample with 15 parts by mass SRH per 100 parts EGT, PDA 210 nm; for HPLC area, 4 days after concentration: concentrated at 30° C., left at room temperature 4 days
Description: In an SRH 0.108 w/w % aqueous solution (1 mL) was dissolved 7.1 mg of EGT (manufactured by Tetrahedron) to prepare a sample having 15 parts by mass of SRH with respect to 100 parts by mass of EGT.
For HPLC analysis, 100 μL of the sample was diluted 10 times with water. The remaining 900 μL was concentrated under reduced pressure using an evaporator at 30° C. After the mixture was left to stand at room temperature for 4 days, the mixture was dissolved in 0.9 mL of water. For HPLC analysis, 100 μL of the solution was diluted 10 times with water.
HPLC analysis was performed under the following conditions.
Column: YMC-Pack ODS-AQ S-5 μM, 12 nm, 250×4.6 mm I.D.
Flow rate: 0.5 mL/min, Temperature: 30° C.
Eluent: 0.1% aqueous formic acid solution
Retention time: SRH: around 6.6 minutes; SRH dehydrated dimer: around 7.5 minutes; EGT: around 8.7 minutes.

[3] = tested on: mouse bone marrow-derived macrophages; details: cited from earlier work; for production of cytokines (IL-6, IL-12p40, IL-1β, IL-10): toll-like receptor ligand stimulation
[4] = tested on: OT-II CD4+ T cells; details: 30 mM EGT; co-culture with F4/80 macrophages; cited from earlier work

SMILES	growth of Escherichia coli [1]	HPLC area, before concentration [2]	HPLC area, 4 days after concentration [2]	production of cytokines (IL-6, IL-12p40, IL-1β, IL-10) ([3]; 1 mM EGT)	production of cytokines (IL-6, IL-12p40, IL-1β, IL-10) ([3]; 10 mM EGT)	concentration that activates macrophages [3]	Th17 polarization of OT-II CD4+ T cells [4]
C[N+](C)(C)[C@@H](Cc1c[nH]c(=S)[nH]1)C(=O)[O-] [EGT, N,N,N-trimethyl-L-2-thiohistidine]	suppresses the growth	13959268	14131254	not	promoted	≥ 10 mM	promoted
N[C@@H](CCSC1O[C@H](CO)[C@@H](O)[C@H]1O)C(=O)O (stereo partly drawn) [SRH, S-ribosylhomocysteine]		156690	108189				
